Experimental data: PubChem BioAssay (NCI)
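1) Cells in 96-well plates. 2) Compound, 48 h, 5 concentrations. 3) Linear interpolation between surrounding doses. 4) Unreached endpoint = highest concentration. TGI: total growth inhibition.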 Square brackets hold non-standard residues; d marks the D form. Peptide text beside a SMILES is read from it. Phe(4-NO2) = N[CH](Cc1ccc([N+](=O)[O-])cc1)C(=O)O

How the values were obtained:
Assay in all cases: DTP human tumour cell line panel, 48 h
DU-145 prostate = test system: DU-145 prostate
KM12 colon = test system: KM12 colon
LOX IMVI melanoma = test system: LOX IMVI melanoma
OVCAR-8 ovarian = test system: OVCAR-8 ovarian
COLO 205 colon = test system: COLO 205 colon
CAKI-1 renal = test system: CAKI-1 renal
SF-295 CNS = test system: SF-295 CNS
NCI-H226 lung = test system: NCI-H226 lung
SK-MEL-5 melanoma = test system: SK-MEL-5 melanoma
BT-549 breast = test system: BT-549 breast
M14 melanoma = test system: M14 melanoma
HT29 colon = test system: HT29 colon
HOP-62 NSCLC = test system: HOP-62 NSCLC
SR leukemia = test system: SR leukemia

Row | Compound | TGI (DU-145 prostate) | TGI (KM12 colon) | TGI (LOX IMVI melanoma) | TGI (OVCAR-8 ovarian) | TGI (COLO 205 colon) | TGI (CAKI-1 renal) | TGI (SF-295 CNS) | TGI (NCI-H226 lung) | TGI (SK-MEL-5 melanoma) | TGI (BT-549 breast) | TGI (M14 melanoma) | TGI (HT29 colon) | TGI (HOP-62 NSCLC) | TGI (SR leukemia)
1 | C=CC(C)(C)n1cc(C2=C(O)C(=O)C(c3c(CC=C(C)C)[nH]c4ccccc34)=C(O)C2=O)c2ccccc21 | 5.46 µM | 2.63 µM | 5.38 µM | 4.57 µM | 3.23 µM | 7.16 µM | 4.1 µM | 3.64 µM | 4.1 µM | 1.91 µM | 4.24 µM | 7.36 µM | 2.63 µM | –
2 | CCOC(OCC)[C@H](N)[C@@H](O)[C@@H](O)[C@H]1COC(C)(C)O1 | > 100 µM | > 100 µM | > 100 µM | > 100 µM | > 100 µM | – | > 100 µM | > 100 µM | > 100 µM | – | > 100 µM | > 100 µM | > 100 µM | > 100 µM
3 | CCCCSC1=N/C(=C\c2ccc(N(C)C)cc2)C(Cl)=N1 | > 100 µM | > 100 µM | > 100 µM | > 100 µM | > 100 µM | > 100 µM | > 100 µM | > 100 µM | – | > 100 µM | > 100 µM | > 100 µM | > 100 µM | –
4 | COc1ccc2c(c1)OC1c3ccccc3OCC21 (centres undefined) | > 100 µM | > 100 µM | > 100 µM | > 100 µM | > 100 µM | > 100 µM | > 100 µM | > 100 µM | > 100 µM | > 100 µM | > 100 µM | 93.9 µM | > 100 µM | –
5 | CCCCC(N)CSSCC(N)CCCC (centres undefined) | – | > 100 µM | 32.1 µM | > 100 µM | > 100 µM | – | > 100 µM | 43.6 µM | 55.7 µM | – | 38.2 µM | 50.8 µM | 95.4 µM | 45.7 µM
6 | Cc1ccc(NC(=S)N=Nc2c(O)[nH]c3ccccc23)cc1 | > 100 µM | > 100 µM | > 100 µM | > 100 µM | > 100 µM | > 100 µM | > 100 µM | > 100 µM | > 100 µM | – | > 100 µM | > 100 µM | > 100 µM | > 100 µM
7 | CCN(CCCl)c1cc(CN(C)C)cc(NC(=O)c2ccc(C(=O)Nc3ccccc3)cc2)c1 | 6.92 µM | 2.8 µM | 0.634 µM | 6.34 µM | 2.27 µM | 3.69 µM | 12.4 µM | 5.92 µM | – | – | 5.44 µM | 0.414 µM | 3.21 µM | 1.16 µM
8 | CCOc1cc(/C=C2\N=C(c3ccccc3)N(c3nc4ccccc4s3)C2=O)ccc1O | > 100 µM | > 100 µM | > 100 µM | > 100 µM | – | > 100 µM | > 100 µM | > 100 µM | 41.4 µM | – | > 100 µM | > 100 µM | > 100 µM | > 100 µM
9 | CC(C)C1=CC23CCC4C(C)(C(=O)O)CCCC4(C)C2CC1C1C(=O)N(c2cccc(N4C(=O)C5C6CC7C8(C)CCCC(C)(C(=O)O)C8CCC7(C=C6C(C)C)C5C4=O)c2)C(=O)C13 (centres undefined) | 22.7 µM | 9.7 µM | – | 22.7 µM | 23.8 µM | – | – | 32.5 µM | 28.6 µM | – | 25.5 µM | 10.8 µM | 25.2 µM | 45 µM
10 | C=C(C)C1CC2=C(O1)C(=O)c1cccc(O)c1C2=O (centres undefined) | 3.15 µM | 3.27 µM | > 22.8 µM | 1.81 µM | 3.25 µM | 2.08 µM | 2.73 µM | 3.46 µM | 0.304 µM | 1.63 µM | 2.43 µM | 3.13 µM | 2.94 µM | –
11 | COc1cc(OC2OC(CO)C(O)C(O)C2O)c2c(c1)O[C@@H]1[C@H](O)Oc3cc(OC)c(OC)cc3[C@]1(O)C2=O (some centres undefined) | > 25 µM | > 25 µM | > 25 µM | > 25 µM | > 25 µM | > 25 µM | > 25 µM | > 25 µM | > 25 µM | – | > 25 µM | > 25 µM | > 25 µM | > 25 µM
12 | COc1cc(C(=O)N(C(=S)OC23CC4CC(CC(C4)C2)C3)c2ccccc2)cc(OC)c1OC | > 100 µM | > 100 µM | – | > 100 µM | 39 µM | > 100 µM | > 100 µM | > 100 µM | 32.9 µM | > 100 µM | 39.7 µM | 41.8 µM | > 100 µM | –
13 | CC(C)(C)OC(=O)N1CCC(NC(=O)NC2CCN(C(=O)OC(C)(C)C)CC2)CC1 | – | > 100 µM | > 100 µM | > 100 µM | – | > 100 µM | > 100 µM | – | – | 12.6 µM | > 100 µM | > 100 µM | > 100 µM | > 100 µM
14 | C/C(=N\Nc1nc2ccccc2o1)c1cc2ccccc2cn1 | 39.7 µM | 7.85 µM | – | – | > 32.7 µM | 11.1 µM | 4.56 µM | – | 22.5 µM | 3.23 µM | – | – | 15.6 µM | –
15 | COC(=O)CCC(NC(=O)C(CCC(=O)OC)NC(=O)C(CCC(=O)OC)NC(=O)C(CCC(=O)OC)NC(=O)C(CCC(=O)OC)NC(=O)C(Cc1ccc([N+](=O)[O-])cc1)NC(=O)C(CCC(=O)OC)NC(=O)C(CCC(=O)OC)NC(=O)C(CCC(=O)OC)NC(=O)C(CCC(=O)OC)NC(=O)C(CCC(=O)OC)NC(C)=O)C(N)=O (centres undefined) (Ac-E(OMe)E(OMe)E(OMe)E(OMe)E(OMe)[Phe(4-NO2)]E(OMe)E(OMe)E(OMe)E(OMe)E(OMe)-NH2; configuration not given here) | > 100 µM | > 100 µM | > 100 µM | > 100 µM | > 100 µM | > 100 µM | > 100 µM | – | > 100 µM | – | > 100 µM | > 100 µM | – | > 100 µM
16 | COc1ccc(S(=O)(=O)Nc2ccc(-c3csc(N4C(=O)/C(=C/c5cccs5)N=C4c4ccccc4)n3)cc2)cc1Cl | > 100 µM | > 100 µM | > 100 µM | > 100 µM | > 100 µM | > 100 µM | > 100 µM | > 100 µM | > 100 µM | – | > 100 µM | > 100 µM | 45.8 µM | > 100 µM
17 | S=C(S)N1CCN(c2ccccc2)CC1 | > 100 µM | > 100 µM | > 100 µM | > 100 µM | > 100 µM | > 100 µM | > 100 µM | – | > 100 µM | > 100 µM | > 100 µM | > 100 µM | > 100 µM | –
18 | Cc1ccc2c(=O)c(C(=O)NNC(=S)NC3CCCCC3)c[nH]c2n1 | > 100 µM | > 100 µM | > 100 µM | > 100 µM | > 100 µM | > 100 µM | > 100 µM | > 100 µM | > 100 µM | > 100 µM | > 100 µM | > 100 µM | > 100 µM | –
19 | CCCCN1CCC(O)(c2cc(C(=O)O)[nH]c2-c2cc(C)no2)C1=O (centres undefined) | > 100 µM | > 100 µM | – | > 100 µM | > 100 µM | > 100 µM | > 100 µM | – | > 100 µM | > 100 µM | > 100 µM | > 100 µM | > 100 µM | –
20 | C[C@H](CO)C1=CC(C#C[Si](C)(C)C)N(C(=O)Oc2ccccc2)c2ccccc21 (some centres undefined) | 31.7 µM | 21.8 µM | 33.5 µM | 42.9 µM | 24.3 µM | 28.7 µM | 14.3 µM | 34.6 µM | 26.6 µM | – | 22 µM | 20.5 µM | 19.4 µM | 82.5 µM
21 | COc1ccc(NC(=S)Nc2c(C)n(C)n(-c3ccccc3)c2=O)cc1 | > 100 µM | > 100 µM | > 100 µM | > 100 µM | > 100 µM | > 100 µM | > 100 µM | > 100 µM | > 100 µM | > 100 µM | > 100 µM | > 100 µM | > 100 µM | –
22 | O=C(Nc1nccs1)NS(=O)(=O)n1cnc2ccccc21 | > 100 µM | > 100 µM | – | > 100 µM | > 100 µM | > 100 µM | > 100 µM | > 100 µM | > 100 µM | > 100 µM | > 100 µM | > 100 µM | > 100 µM | –
23 | CC1=CC(=O)/C(=C/N2C(=O)CNC2=S)C(=O)O1 | > 100 µM | > 100 µM | > 100 µM | > 100 µM | > 100 µM | > 100 µM | > 100 µM | > 100 µM | > 100 µM | – | > 100 µM | > 100 µM | > 100 µM | –
24 | CCOc1ncnc2ccc(Cl)c(I)c12 | – | > 100 µM | > 100 µM | > 100 µM | > 100 µM | > 100 µM | > 100 µM | – | > 100 µM | – | > 100 µM | > 100 µM | > 100 µM | > 100 µM
25 | NS(=O)(=O)c1ccc(N2C(=O)C(=O)N(c3ccccc3)C2=S)cc1 | > 100 µM | > 100 µM | > 100 µM | > 100 µM | > 100 µM | > 100 µM | > 100 µM | > 100 µM | > 100 µM | – | – | > 100 µM | > 100 µM | > 100 µM
26 | O=P(O)(O)CC1OC(CO)C(O)C1O (centres undefined) | > 100 µM | > 100 µM | > 100 µM | > 100 µM | > 100 µM | > 100 µM | > 100 µM | > 100 µM | > 100 µM | > 100 µM | > 100 µM | > 100 µM | – | –
